The values below come from article PMC9487190 (Parasitology research, 2022).

The target of test [1] is T1, EgSERT (Echinococcus granulosus, UniProt W6UF91). The class given is cell-based. To be noted: COS-7 cells, 15 nM – 10 μM serotonin, 10 min.
In test [2] the target is T1, EgSERT. The class given is cell-based. To be noted: 50 nM radiolabeled substrate, 10 min, room temperature, COS-7 cells.
Test [3] relates to E. multilocularis metacestode vesicles and primary cells. To be noted: ref Herz and Brehm (2021), cited from earlier work.
Test [4] has as its system human cystic echinococcosis (CE). To be noted: ref Gottstein et al., 2015; Hemphill et al., 2014; cited from earlier work.
Test [5] has as its target T1, EgSERT. The class given is cell-based. To be noted: at around 1 μM.
The test system of test [6] is protoscoleces of E. granulosus. To be noted: 100 μM; ref Camicia et al., 2013; Herz and Brehm, 2021; cited from earlier work.
The subject of test [7] is S. mansoni miracidia. Particulars: exogenously added, 50 μM; ref Taft et al., 2010; cited from earlier work.

`NCCc1c[nH]c2ccc(O)cc12` [serotonin, 5-hydroxytryptamine]: in test [1], the “Vmax of serotonin uptake” value was 615 ± 33 fmol/min/well. The “transport of radiolabeled substrate by EgSERT compared with background” value (shortened to “transport … compared with background”) in test [2] is listed as “significantly higher accumulation”. Moreover, the “metacestode vesicle formation and cell proliferation from primary cells” value in test [3] (exogenous, dose dependent) is “induces metacestode vesicle formation and cell proliferation”.
As to `CCCSc1ccc2nc(NC(=O)OC)[nH]c2c1` [ABZ, albendazole], the “share of CE cases in which treatment is ineffective” value in test [4] was ~ 40%.
For the compound `Fc1ccc([C@@H]2CCNC[C@H]2COc2ccc3c(c2)OCO3)cc1` [paroxetine], in test [3] (100 μM), the “metacestode vesicle damage and viability of primary cell culture” value is “significant metacestode vesicle damage and cell viability reduction”.
For `NCC(=O)O` [glycine], in test [2], the “transport … compared with background” value is on record as “does not transport”.
Regarding `CN(C)CCCC1(c2ccc(F)cc2)OCc2cc(C#N)ccc21` (stereo not drawn) [citalopram], the “inhibition of serotonin transport by EgSERT” value in test [5] is “almost complete inhibition”. The “effect on motility and development of protoscoleces” value in test [6] is reported as “strong inhibitory effect”. The “effect on miracidial transformation rates” value in test [7] is “detrimental effect”.
For `NCCc1ccc(O)c(O)c1` [dopamine], in test [2], the “transport … compared with background” value is “does not transport”.
With `N[C@@H](CCC(=O)O)C(=O)O` [glutamate, glutamic acid], the “transport … compared with background” value in test [2] was “does not transport”.
In the case of `NCCCC(=O)O` [GABA], the “transport … compared with background” value in test [2] was “does not transport”.
